Data from ChEMBL document CHEMBL1201862, “PubChem BioAssay data set” (2004).
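These data come from cells grown in 96-well plates and exposed to compound for 48 hours at five concentrations. Here, GI50 denotes the concentration required for 50% inhibition of growth.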 The source made the active and inactive calls. Cut-off read from the data, not from the text of the source: active = GI50 up to about 1.1 µM and inactive = higher. Non-standard residues stand in square brackets, D forms with d. Residues, ends and D or L forms follow the SMILES beside them. *: point of attachment. hSer = N[CH](CCO)C(=O)O; Boc = CC(C)(C)OC(=O)*

Columns and labels:
Test in all cases: NCI tumour cell line growth inhibition, 48 h
[1] = system: DU-145
[2] = system: SF-268
[3] = system: T47D
[4] = system: K562
[5] = system: A498
[6] = system: NCI-H522
[7] = system: SW-620
[8] = system: 786-0
[9] = system: MOLT-4
[10] = system: NCI-H23
[11] = system: SNB-75
[12] = system: SR
[13] = system: UACC-257
[14] = system: RPMI-8226
[15] = system: Malme-3M
[16] = system: COLO 205
[17] = system: SF-295
[18] = system: UACC-62
[19] = system: SK-OV-3
[20] = system: HCC 2998

SMILES | GI50 [1] | GI50 [2] | GI50 [3] | GI50 [4] | GI50 [5] | GI50 [6] | GI50 [7] | GI50 [8] | GI50 [9] | GI50 [10] | GI50 [11] | GI50 [12] | GI50 [13] | GI50 [14] | GI50 [15] | GI50 [16] | GI50 [17] | GI50 [18] | GI50 [19] | GI50 [20]
COc1ccc(Cc2cc(OC)c(OC)c(OC)c2)cc1O | 0.0231 µM (active) | 0.122 µM (active) | 53.8 µM (inactive) | 0.0161 µM (active) | 25.2 µM (inactive) | 0.12 µM (active) | < 0.01 µM (active) | 0.116 µM (active) | 0.0211 µM (active) | 0.101 µM (active) | < 0.01 µM (active) | 0.0194 µM (active) | 3.95 µM (inactive) | < 0.021 µM (active) | 0.0389 µM (active) | > 40.2 µM (inactive) | 0.286 µM (active) | 0.457 µM (active) | 0.274 µM (active) | 2.41 µM (inactive)
NS(=O)(=O)c1ccc(NCc2cnc3ccccc3c2)cc1 | > 100 µM (inactive) | 39.8 µM (inactive) | > 100 µM (inactive) | > 100 µM (inactive) | > 100 µM (inactive) | 28.1 µM (inactive) | > 100 µM (inactive) | 39.4 µM (inactive) | > 100 µM (inactive) | 60 µM (inactive) | > 100 µM (inactive) | > 100 µM (inactive) | > 100 µM (inactive) | > 100 µM (inactive) | > 100 µM (inactive) | > 100 µM (inactive) | > 100 µM (inactive) | > 100 µM (inactive) | > 100 µM (inactive) | > 100 µM (inactive)
CNC(=O)CNC(=O)N(C[C@@H]1CCCN1C(=O)[C@H](CC(C)C)NC(=O)OC(C)(C)C)C(C)C | > 100 µM (inactive) | > 100 µM (inactive) | > 100 µM (inactive) | > 100 µM (inactive) | > 100 µM (inactive) | > 100 µM (inactive) | > 100 µM (inactive) | > 100 µM (inactive) | > 100 µM (inactive) | > 100 µM (inactive) | > 100 µM (inactive) | > 100 µM (inactive) |  | > 100 µM (inactive) | > 100 µM (inactive) | > 100 µM (inactive) | > 100 µM (inactive) | > 100 µM (inactive) | > 100 µM (inactive) | > 100 µM (inactive)
CCOC(=O)c1oc2cc3c(c4c2c1-c1ccccc1N4C)C=CC(C)(C)O3 | 18.7 µM (inactive) | 13.5 µM (inactive) | 16.9 µM (inactive) | 6.71 µM (inactive) | 25.9 µM (inactive) | 8.71 µM (inactive) | 59.8 µM (inactive) | 7.06 µM (inactive) | 14 µM (inactive) | 22.2 µM (inactive) | 12.6 µM (inactive) | 0.56 µM (active) | 31.2 µM (inactive) | 12.8 µM (inactive) | 12 µM (inactive) | > 65.3 µM (inactive) | 8.81 µM (inactive) | 11.9 µM (inactive) | 13.4 µM (inactive) | 65.3 µM (inactive)
[N-]=[N+]=NC1C(O)C(CO)OC1n1ccc(=O)[nH]c1=O (stereo not given) | > 875 µM (inactive) | > 875 µM (inactive) | > 875 µM (inactive) | > 875 µM (inactive) | > 875 µM (inactive) | > 875 µM (inactive) | > 875 µM (inactive) | > 875 µM (inactive) | > 875 µM (inactive) | > 875 µM (inactive) | > 875 µM (inactive) | > 875 µM (inactive) | > 875 µM (inactive) | > 875 µM (inactive) | > 875 µM (inactive) | > 875 µM (inactive) | > 875 µM (inactive) | > 875 µM (inactive) | > 875 µM (inactive) | > 875 µM (inactive)
CN(N)c1cc(=O)[nH]c(=O)[nH]1 | > 100 µM (inactive) | > 100 µM (inactive) | > 100 µM (inactive) | > 100 µM (inactive) | > 100 µM (inactive) | > 100 µM (inactive) | > 100 µM (inactive) | > 100 µM (inactive) | > 100 µM (inactive) | > 100 µM (inactive) |  | > 100 µM (inactive) | > 100 µM (inactive) | > 100 µM (inactive) | > 100 µM (inactive) |  | > 100 µM (inactive) | > 100 µM (inactive) | > 100 µM (inactive) | > 100 µM (inactive)
Oc1c(C2=NNC(c3ccc(Cl)cc3Cl)C2)ccc2ccccc12 (stereo not given) | 64.9 µM (inactive) | 33 µM (inactive) | 62.2 µM (inactive) | 23.1 µM (inactive) | 71.4 µM (inactive) | 24 µM (inactive) | 35.9 µM (inactive) | 31.5 µM (inactive) | 5.7 µM (inactive) | 68.1 µM (inactive) | 39.9 µM (inactive) | 8.38 µM (inactive) | 42.3 µM (inactive) | 32 µM (inactive) | 17.9 µM (inactive) | 32 µM (inactive) | 28.3 µM (inactive) | 40.6 µM (inactive) | 46.3 µM (inactive) | 34.5 µM (inactive)
CO[C@@H](c1ccccc1)[C@H](O)[C@](O)(c1ccccc1)P(=O)(OC)OC | > 100 µM (inactive) | > 100 µM (inactive) | > 100 µM (inactive) | > 100 µM (inactive) | > 100 µM (inactive) | > 100 µM (inactive) | > 100 µM (inactive) | > 100 µM (inactive) | > 100 µM (inactive) | > 100 µM (inactive) | > 100 µM (inactive) | > 100 µM (inactive) | > 100 µM (inactive) | > 100 µM (inactive) | > 100 µM (inactive) | > 100 µM (inactive) | > 100 µM (inactive) | > 100 µM (inactive) | > 100 µM (inactive) | > 100 µM (inactive)
COc1ccc2nc3cc(Cl)ccc3c(NCCNCCCNC(=O)c3cc(-c4ccccc4)nc4ccccc34)c2c1 | > 100 µM (inactive) | > 100 µM (inactive) | > 100 µM (inactive) | 70.8 µM (inactive) | > 100 µM (inactive) | > 100 µM (inactive) | > 100 µM (inactive) | > 100 µM (inactive) | > 100 µM (inactive) | > 100 µM (inactive) | > 100 µM (inactive) | 38.3 µM (inactive) | > 100 µM (inactive) | > 100 µM (inactive) | 97.5 µM (inactive) | > 100 µM (inactive) | > 100 µM (inactive) | > 100 µM (inactive) | > 100 µM (inactive) | > 100 µM (inactive)
CN(C)CCCOC(=O)C(c1ccccc1)C1(O)CCSCC1 (stereo not given) | > 100 µM (inactive) | > 100 µM (inactive) | > 100 µM (inactive) | > 100 µM (inactive) | > 100 µM (inactive) | > 100 µM (inactive) | 32.3 µM (inactive) | > 100 µM (inactive) | > 100 µM (inactive) | > 100 µM (inactive) | 87.1 µM (inactive) | > 100 µM (inactive) | > 100 µM (inactive) | > 100 µM (inactive) | > 100 µM (inactive) | > 100 µM (inactive) | > 100 µM (inactive) | > 100 µM (inactive) | > 100 µM (inactive) | > 100 µM (inactive)
COC(=O)[C@]12C3=C(O)C(=O)C[C@H]1OC[C@H]2C=CC3 | > 100 µM (inactive) | > 100 µM (inactive) | > 100 µM (inactive) | 64 µM (inactive) | > 100 µM (inactive) | 20.1 µM (inactive) | 29.2 µM (inactive) | > 100 µM (inactive) |  | > 100 µM (inactive) | > 100 µM (inactive) | > 100 µM (inactive) | > 100 µM (inactive) | > 100 µM (inactive) | > 100 µM (inactive) | > 100 µM (inactive) | > 100 µM (inactive) | > 100 µM (inactive) | > 100 µM (inactive) | > 100 µM (inactive)
COc1nc(C(=O)NNC(=O)c2nc(OC)c3ccccc3c2-c2ccccc2)c(-c2ccccc2)c2ccccc12 | > 100 µM (inactive) | > 100 µM (inactive) | > 100 µM (inactive) | > 100 µM (inactive) | > 100 µM (inactive) | > 100 µM (inactive) | > 100 µM (inactive) | > 100 µM (inactive) | > 100 µM (inactive) | > 100 µM (inactive) | 96.6 µM (inactive) | 0.113 µM (active) | > 100 µM (inactive) | > 100 µM (inactive) | > 100 µM (inactive) | > 100 µM (inactive) | > 100 µM (inactive) | > 100 µM (inactive) | > 100 µM (inactive) | > 100 µM (inactive)
COC(=O)[C@@]12C(=O)C=CC(=O)[C@@H]1C1C(=CC2COC(C)=O)O[C@@H]2OC3(CCCCC3)O[C@H]12 (stereo not given in full) | 18.3 µM (inactive) | 14.2 µM (inactive) | 3.66 µM (inactive) | 4.15 µM (inactive) | 22.8 µM (inactive) | 2.21 µM (inactive) | 3.75 µM (inactive) | 7.1 µM (inactive) | 3.29 µM (inactive) | 17.1 µM (inactive) | 13 µM (inactive) | 3.05 µM (inactive) | 16.3 µM (inactive) | 2.99 µM (inactive) | 15.7 µM (inactive) | 5.77 µM (inactive) | 16.1 µM (inactive) | 12.9 µM (inactive) | 16.1 µM (inactive) | 16.1 µM (inactive)
COCCC(NC(=O)C(CC(C)C)NC(=O)OC(C)(C)C)C(N)=O (stereo not drawn) (Boc-Leu-[hSer](Me)-NH2; configuration not given here) | > 100 µM (inactive) | > 100 µM (inactive) | > 100 µM (inactive) | > 100 µM (inactive) | > 100 µM (inactive) | > 100 µM (inactive) | > 100 µM (inactive) | > 100 µM (inactive) | > 100 µM (inactive) |  | > 100 µM (inactive) | > 100 µM (inactive) | > 100 µM (inactive) | > 100 µM (inactive) | > 100 µM (inactive) | > 100 µM (inactive) | > 100 µM (inactive) | > 100 µM (inactive) | > 100 µM (inactive) | > 100 µM (inactive)
